According to article PMC5564600 (Oncotarget, 2017):
Like-named read-outs stand apart in the source and are kept apart here.

What was measured:
Assay in all cases: biochemical
Format in all cases: binding
[1] = target: T1, panel of 442 kinases (Homo sapiens, UniProt P43403); conditions: kinase ZAP70; for remaining activity at 1 µM: read-out: ZAP70 (% of control at 1 µM)
T1 construct: purchased Ambit Biosciences (scanMAXX KINOMEscan)
T1 sequence (P43403 1-619): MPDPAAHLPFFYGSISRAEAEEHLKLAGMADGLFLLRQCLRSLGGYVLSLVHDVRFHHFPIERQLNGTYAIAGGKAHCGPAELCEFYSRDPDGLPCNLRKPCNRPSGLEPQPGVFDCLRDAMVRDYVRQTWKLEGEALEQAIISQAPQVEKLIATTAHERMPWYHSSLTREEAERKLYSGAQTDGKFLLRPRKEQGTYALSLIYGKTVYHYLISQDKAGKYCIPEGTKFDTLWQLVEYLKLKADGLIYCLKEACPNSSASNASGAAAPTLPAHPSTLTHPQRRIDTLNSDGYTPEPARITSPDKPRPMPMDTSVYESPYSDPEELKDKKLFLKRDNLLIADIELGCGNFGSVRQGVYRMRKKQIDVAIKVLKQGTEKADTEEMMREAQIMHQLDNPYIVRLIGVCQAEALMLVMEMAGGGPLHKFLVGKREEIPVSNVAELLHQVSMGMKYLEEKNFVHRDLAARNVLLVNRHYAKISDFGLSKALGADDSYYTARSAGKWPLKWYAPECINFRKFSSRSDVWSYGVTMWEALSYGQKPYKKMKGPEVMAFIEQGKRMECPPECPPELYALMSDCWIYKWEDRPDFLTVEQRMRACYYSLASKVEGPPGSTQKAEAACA

[2] = target: T2, panel of 442 kinases (Homo sapiens, UniProt O14733); conditions: kinase MKK7; for remaining activity at 1 µM: read-out: % of control at 1 µM
T2 construct: purchased Ambit Biosciences (scanMAXX KINOMEscan)
T2 sequence (O14733 1-419): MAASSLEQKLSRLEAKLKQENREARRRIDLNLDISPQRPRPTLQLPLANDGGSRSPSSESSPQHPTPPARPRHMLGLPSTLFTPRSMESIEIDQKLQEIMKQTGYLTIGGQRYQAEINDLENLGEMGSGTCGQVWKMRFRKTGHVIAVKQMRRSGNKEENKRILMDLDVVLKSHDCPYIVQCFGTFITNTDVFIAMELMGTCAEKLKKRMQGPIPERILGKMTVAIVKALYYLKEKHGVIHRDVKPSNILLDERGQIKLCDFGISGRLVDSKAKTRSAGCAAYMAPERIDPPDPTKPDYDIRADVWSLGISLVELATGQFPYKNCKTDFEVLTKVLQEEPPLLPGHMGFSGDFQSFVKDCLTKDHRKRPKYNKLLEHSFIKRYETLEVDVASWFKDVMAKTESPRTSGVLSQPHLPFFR

[3] = target: T3, panel of 442 kinases (Homo sapiens, UniProt P51451); conditions: BLK; for remaining activity at 1 µM: read-out: % of control at 1 µM
T3 construct: purchased Ambit Biosciences (scanMAXX KINOMEscan)

[4] = target: T4, panel of 442 kinases (Homo sapiens, UniProt P29317); conditions: EPHA2; for remaining activity at 1 µM: read-out: % of control at 1 µM
T4 construct: purchased Ambit Biosciences (scanMAXX KINOMEscan)

[5] = target: T5, panel of 442 kinases (Homo sapiens, UniProt Q8IVH8); conditions: kinase MAP4K3; for remaining activity at 1 µM: read-out: % of control at 1 µM
T5 construct: purchased Ambit Biosciences (scanMAXX KINOMEscan)
T5 sequence (Q8IVH8 1-894): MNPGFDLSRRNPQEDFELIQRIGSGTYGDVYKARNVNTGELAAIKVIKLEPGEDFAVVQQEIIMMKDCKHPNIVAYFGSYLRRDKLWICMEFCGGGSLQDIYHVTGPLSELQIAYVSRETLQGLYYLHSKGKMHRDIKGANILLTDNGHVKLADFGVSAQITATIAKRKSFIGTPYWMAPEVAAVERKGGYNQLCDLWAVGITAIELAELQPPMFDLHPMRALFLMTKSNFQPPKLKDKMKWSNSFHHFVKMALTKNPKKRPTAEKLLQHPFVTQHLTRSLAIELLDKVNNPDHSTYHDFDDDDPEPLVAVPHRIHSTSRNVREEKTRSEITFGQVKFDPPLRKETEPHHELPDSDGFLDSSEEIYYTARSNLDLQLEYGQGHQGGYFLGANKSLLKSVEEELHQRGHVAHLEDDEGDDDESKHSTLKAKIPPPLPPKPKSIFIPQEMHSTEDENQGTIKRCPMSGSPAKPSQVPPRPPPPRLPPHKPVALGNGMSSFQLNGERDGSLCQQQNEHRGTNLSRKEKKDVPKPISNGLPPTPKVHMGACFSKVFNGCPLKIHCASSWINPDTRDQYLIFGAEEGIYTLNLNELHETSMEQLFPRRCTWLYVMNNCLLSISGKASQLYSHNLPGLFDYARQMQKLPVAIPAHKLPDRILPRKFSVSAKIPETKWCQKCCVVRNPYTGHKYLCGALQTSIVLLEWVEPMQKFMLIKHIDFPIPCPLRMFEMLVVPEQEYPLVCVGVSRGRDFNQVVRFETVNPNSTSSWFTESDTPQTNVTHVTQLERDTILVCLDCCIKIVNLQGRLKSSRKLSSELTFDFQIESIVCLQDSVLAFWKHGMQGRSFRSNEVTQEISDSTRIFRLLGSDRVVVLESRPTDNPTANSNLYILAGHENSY

[6] = target: T6, panel of 442 kinases (Homo sapiens, UniProt P00519, F317I); conditions: for remaining activity at 1 µM: read-out: % of control at 1 µM; for remaining activity at 10 µM: read-out: % of control at 10 µM
T6 construct: purchased Ambit Biosciences (scanMAXX KINOMEscan)

[7] = target: T7, panel of 442 kinases (Homo sapiens, UniProt Q9H4B4); conditions: kinase PLK3; for remaining activity at 1 µM: read-out: PLK3 (% of control at 1 µM)
T7 construct: purchased Ambit Biosciences (scanMAXX KINOMEscan)

[8] = target: T8, panel of 442 kinases (Homo sapiens, UniProt P31152); conditions: ERK4; for remaining activity at 1 µM: read-out: % of control at 1 µM
T8 construct: purchased Ambit Biosciences (scanMAXX KINOMEscan)

[9] = target: T9, panel of 442 kinases (Homo sapiens, UniProt P00533, L861Q); conditions: EGFR(L861Q); for remaining activity at 1 µM: read-out: % of control at 1 µM
T9 construct: purchased Ambit Biosciences (scanMAXX KINOMEscan)

[10] = target: T10, panel of 442 kinases (Homo sapiens, UniProt P42338); conditions: kinase PIK3CB; 1 µM; read-out: % of control at 1 µM
T10 construct: purchased Ambit Biosciences (scanMAXX KINOMEscan)

[11] = 10 µM, read-out: % of control at 10 µM

T8 sequence (P31152 whole entry): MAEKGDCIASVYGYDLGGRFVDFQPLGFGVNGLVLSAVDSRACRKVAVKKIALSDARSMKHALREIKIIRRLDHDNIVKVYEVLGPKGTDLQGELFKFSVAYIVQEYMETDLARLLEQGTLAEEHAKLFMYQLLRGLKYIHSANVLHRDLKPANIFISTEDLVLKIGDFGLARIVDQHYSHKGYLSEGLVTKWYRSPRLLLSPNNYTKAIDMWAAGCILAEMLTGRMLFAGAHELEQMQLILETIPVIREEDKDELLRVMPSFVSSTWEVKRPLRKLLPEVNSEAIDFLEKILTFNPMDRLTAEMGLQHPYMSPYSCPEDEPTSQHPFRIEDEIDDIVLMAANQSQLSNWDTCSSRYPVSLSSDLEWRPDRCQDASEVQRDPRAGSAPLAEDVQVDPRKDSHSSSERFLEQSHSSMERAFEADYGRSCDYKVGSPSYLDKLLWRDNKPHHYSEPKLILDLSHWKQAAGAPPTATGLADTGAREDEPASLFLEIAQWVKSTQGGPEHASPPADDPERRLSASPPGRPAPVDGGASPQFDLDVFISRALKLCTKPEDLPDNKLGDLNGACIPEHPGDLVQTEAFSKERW
T6 sequence (P00519 whole entry F317I): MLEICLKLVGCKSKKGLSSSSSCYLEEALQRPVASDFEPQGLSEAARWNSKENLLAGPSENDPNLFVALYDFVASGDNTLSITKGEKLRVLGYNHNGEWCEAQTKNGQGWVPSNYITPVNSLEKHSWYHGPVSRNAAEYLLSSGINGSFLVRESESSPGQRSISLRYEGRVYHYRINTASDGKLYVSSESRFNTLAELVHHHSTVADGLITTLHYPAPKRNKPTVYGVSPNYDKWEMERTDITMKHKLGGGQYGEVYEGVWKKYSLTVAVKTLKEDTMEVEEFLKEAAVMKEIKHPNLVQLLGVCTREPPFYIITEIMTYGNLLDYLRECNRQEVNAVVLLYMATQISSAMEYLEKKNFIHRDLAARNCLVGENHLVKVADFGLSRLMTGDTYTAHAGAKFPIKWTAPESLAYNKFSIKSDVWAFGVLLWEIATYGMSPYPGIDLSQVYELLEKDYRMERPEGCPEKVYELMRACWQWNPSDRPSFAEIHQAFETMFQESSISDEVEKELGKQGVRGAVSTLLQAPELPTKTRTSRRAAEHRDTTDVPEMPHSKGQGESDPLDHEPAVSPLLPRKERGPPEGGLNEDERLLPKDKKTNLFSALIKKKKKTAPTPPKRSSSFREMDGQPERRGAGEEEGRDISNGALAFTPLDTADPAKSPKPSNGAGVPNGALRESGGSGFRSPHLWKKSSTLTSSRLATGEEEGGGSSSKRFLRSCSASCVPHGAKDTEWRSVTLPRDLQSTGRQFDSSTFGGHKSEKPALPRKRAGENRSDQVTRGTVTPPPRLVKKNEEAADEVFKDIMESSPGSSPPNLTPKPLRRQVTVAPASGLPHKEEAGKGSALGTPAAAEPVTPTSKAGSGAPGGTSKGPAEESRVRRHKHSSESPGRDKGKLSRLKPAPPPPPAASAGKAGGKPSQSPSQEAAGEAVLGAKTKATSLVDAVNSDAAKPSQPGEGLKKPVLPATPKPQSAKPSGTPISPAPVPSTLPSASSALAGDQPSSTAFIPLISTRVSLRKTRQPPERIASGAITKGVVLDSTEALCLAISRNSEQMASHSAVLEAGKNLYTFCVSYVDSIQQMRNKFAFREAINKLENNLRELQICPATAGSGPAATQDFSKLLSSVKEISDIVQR
T10 sequence (P42338 whole entry): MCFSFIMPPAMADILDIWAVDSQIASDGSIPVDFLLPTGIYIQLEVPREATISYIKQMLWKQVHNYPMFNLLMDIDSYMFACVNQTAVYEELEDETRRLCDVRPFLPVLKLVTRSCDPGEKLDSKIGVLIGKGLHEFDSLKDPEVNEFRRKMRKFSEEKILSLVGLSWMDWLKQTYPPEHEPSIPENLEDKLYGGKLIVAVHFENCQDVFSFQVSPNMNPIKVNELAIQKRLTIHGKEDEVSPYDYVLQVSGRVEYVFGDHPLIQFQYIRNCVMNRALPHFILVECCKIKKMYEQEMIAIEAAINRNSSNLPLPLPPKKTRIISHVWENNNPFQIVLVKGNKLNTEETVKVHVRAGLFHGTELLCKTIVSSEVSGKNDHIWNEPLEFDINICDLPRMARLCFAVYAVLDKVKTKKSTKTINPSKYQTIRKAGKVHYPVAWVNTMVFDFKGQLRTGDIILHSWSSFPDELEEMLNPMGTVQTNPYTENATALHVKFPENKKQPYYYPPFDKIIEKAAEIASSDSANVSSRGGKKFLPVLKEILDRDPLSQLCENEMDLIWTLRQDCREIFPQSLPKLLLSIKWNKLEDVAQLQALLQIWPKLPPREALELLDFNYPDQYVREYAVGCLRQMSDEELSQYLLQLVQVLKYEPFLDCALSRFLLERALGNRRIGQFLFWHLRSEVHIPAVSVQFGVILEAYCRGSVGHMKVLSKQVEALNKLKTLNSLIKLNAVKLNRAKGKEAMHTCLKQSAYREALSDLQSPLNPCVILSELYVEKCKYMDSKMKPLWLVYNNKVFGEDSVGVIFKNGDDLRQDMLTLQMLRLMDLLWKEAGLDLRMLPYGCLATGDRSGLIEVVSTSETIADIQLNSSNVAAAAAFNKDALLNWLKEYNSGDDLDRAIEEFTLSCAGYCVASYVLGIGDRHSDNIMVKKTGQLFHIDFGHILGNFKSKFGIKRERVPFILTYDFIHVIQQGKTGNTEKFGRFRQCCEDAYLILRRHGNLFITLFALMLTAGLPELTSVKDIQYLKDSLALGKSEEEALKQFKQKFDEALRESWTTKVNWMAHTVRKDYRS
T3 sequence (P51451 whole entry): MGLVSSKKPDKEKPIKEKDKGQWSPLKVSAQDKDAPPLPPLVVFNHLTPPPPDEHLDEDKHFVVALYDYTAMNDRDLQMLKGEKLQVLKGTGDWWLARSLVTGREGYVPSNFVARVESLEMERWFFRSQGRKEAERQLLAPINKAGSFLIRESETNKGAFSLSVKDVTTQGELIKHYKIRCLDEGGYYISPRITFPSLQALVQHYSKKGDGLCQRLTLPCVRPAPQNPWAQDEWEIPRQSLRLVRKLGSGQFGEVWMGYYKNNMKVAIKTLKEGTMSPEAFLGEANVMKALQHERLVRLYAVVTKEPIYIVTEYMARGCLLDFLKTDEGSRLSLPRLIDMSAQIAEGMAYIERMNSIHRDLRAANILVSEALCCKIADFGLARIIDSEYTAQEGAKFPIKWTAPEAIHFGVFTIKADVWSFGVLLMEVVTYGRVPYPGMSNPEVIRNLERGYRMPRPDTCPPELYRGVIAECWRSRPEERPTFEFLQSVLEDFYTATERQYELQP
T7 sequence (Q9H4B4 whole entry): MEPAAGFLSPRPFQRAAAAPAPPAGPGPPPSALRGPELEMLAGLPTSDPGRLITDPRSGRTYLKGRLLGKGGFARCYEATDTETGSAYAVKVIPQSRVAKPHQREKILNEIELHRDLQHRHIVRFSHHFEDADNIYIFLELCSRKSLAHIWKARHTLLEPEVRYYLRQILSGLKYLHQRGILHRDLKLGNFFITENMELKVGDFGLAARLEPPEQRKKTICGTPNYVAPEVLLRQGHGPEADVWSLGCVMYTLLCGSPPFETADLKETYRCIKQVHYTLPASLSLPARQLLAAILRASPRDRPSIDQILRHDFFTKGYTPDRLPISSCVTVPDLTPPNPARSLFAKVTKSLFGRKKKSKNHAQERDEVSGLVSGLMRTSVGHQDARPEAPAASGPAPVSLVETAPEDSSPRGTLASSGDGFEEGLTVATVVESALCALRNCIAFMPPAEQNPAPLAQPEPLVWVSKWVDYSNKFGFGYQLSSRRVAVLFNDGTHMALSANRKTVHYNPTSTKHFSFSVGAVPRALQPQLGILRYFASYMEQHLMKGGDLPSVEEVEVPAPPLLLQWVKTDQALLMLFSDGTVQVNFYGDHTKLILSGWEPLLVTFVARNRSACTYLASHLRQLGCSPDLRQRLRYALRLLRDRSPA
T4 sequence (P29317 24-976): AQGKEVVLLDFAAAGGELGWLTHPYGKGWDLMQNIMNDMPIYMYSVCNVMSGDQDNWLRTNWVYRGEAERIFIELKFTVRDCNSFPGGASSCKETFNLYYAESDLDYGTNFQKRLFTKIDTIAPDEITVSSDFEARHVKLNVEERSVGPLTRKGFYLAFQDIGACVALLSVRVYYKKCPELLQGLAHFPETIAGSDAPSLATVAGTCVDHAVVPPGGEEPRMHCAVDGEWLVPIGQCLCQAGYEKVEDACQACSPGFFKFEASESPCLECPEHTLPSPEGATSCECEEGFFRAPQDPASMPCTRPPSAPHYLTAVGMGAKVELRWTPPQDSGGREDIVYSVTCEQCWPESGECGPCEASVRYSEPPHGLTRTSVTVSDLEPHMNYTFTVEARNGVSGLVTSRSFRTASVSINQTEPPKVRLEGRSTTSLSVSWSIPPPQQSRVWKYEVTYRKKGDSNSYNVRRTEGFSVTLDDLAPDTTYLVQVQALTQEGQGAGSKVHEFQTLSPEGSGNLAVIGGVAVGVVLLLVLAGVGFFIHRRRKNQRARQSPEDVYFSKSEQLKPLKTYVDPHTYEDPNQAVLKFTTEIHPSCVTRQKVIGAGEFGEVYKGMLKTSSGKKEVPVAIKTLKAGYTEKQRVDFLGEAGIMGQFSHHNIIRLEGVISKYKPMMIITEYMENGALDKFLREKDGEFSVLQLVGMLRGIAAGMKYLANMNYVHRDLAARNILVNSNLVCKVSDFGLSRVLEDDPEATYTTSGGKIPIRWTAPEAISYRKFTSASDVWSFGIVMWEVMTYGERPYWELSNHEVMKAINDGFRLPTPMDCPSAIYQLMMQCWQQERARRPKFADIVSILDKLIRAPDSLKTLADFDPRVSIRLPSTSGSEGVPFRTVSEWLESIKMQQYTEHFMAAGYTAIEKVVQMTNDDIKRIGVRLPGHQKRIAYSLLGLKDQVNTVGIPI

Compound Nc1cc(C(F)(F)F)c(-c2cc(N3CCOCC3)nc(N3CCOCC3)n2)cn1 [Buparlisib] has a remaining activity at 1 µM [1] of 100%, a remaining activity at 10 µM ([1]; 10 µM, read-out: ZAP70 (% of control at 10 µM)) of 100% and a remaining activity at 1 µM [2] of 100%. It also gave a remaining activity at 10 µM [2, 11] of 99%, a remaining activity at 1 µM [3] of 93% and a remaining activity at 10 µM [3, 11] of 100%. It also gave a remaining activity at 1 µM [4] of 100%, a remaining activity at 10 µM [4, 11] of 100% and a remaining activity at 1 µM [5] of 93%. It also gave a remaining activity at 10 µM [5, 11] of 81%, a remaining activity at 1 µM ([6]; ABL1(F317I)-nonphosphorylated) of 100% and a remaining activity at 10 µM ([6]; ABL1(F317I)-nonphosphorylated) of 100%. For the same compound, the remaining activity at 1 µM ([6]; ABL1(F317I)-phosphorylated) was 78%, the remaining activity at 10 µM ([6]; ABL1(F317I)-phosphorylated) was 100% and the remaining activity at 1 µM [7] was 97%. The remaining activity at 10 µM ([7]; 10 µM, read-out: PLK3 (% of control at 10 µM)) was 100%, the remaining activity at 1 µM [8] was 100% and the remaining activity at 10 µM [8, 11] was 100%. For the same compound, the remaining activity at 1 µM [9] was 88% and the remaining activity at 10 µM [9, 11] was 83%.

Work on Cn1c(=O)n(-c2ccc(C(C)(C)C#N)cc2)c2c3cc(-c4cnc5ccccc5c4)ccc3ncc21 [Dactolisib, 2-methyl-2-[4-(3-methyl-2-oxo-8-quinolin-3-yl-2,3-dihydroimidazo[4,5-c]quinolin-1-yl)-phenyl] propionitrile] yielded a remaining activity at 1 µM [1] of 99%, a remaining activity at 1 µM [10] of 64% and a remaining activity at 1 µM [2] of 100%. The remaining activity at 1 µM [3] was 97%, the remaining activity at 1 µM [4] was 96% and the remaining activity at 1 µM [5] was 30%. For the same compound, the remaining activity at 1 µM ([6]; ABL1(F317I)-nonphosphorylated) was 100%, the remaining activity at 1 µM ([6]; ABL1(F317I)-phosphorylated) was 100% and the remaining activity at 1 µM [7] was 88%. The remaining activity at 1 µM [8] was 100%.

With COc1ncc(-c2ccc3nccc(-c4ccnnc4)c3c2)cc1NS(=O)(=O)c1ccc(F)cc1F [Omipalisib] the remaining activity at 1 µM [1] was 100%, the remaining activity at 1 µM [10] was 0% and the remaining activity at 1 µM [2] was 100%. The remaining activity at 1 µM [3] was 94%, the remaining activity at 1 µM [4] was 100% and the remaining activity at 1 µM [5] was 85%. For the same compound, the remaining activity at 1 µM ([6]; ABL1(F317I)-nonphosphorylated) was 100%, the remaining activity at 1 µM ([6]; ABL1(F317I)-phosphorylated) was 100% and the remaining activity at 1 µM [7] was 82%. The remaining activity at 1 µM [8] was 100% and the remaining activity at 1 µM [9] was 100%.

For FC(F)c1nc2ccccc2n1-c1nc(N2CCOCC2)nc(N2CCOCC2)n1 [ZSTK474, 2-(difluoromethyl)-1-[4,6-di(4-morpholinyl)-1,3,5-triazin-2-yl]-1H-benzimidazole], the remaining activity at 1 µM [1] was 94%, the remaining activity at 1 µM [10] was 0% and the remaining activity at 1 µM [2] was 100%. For the same compound, the remaining activity at 1 µM [3] was 100%, the remaining activity at 1 µM [4] was 100% and the remaining activity at 1 µM [5] was 87%. It also gave a remaining activity at 1 µM ([6]; ABL1(F317I)-nonphosphorylated) of 100%, a remaining activity at 1 µM ([6]; ABL1(F317I)-phosphorylated) of 88% and a remaining activity at 1 µM [7] of 83%. The remaining activity at 1 µM [8] was 85% and the remaining activity at 1 µM [9] was 100%.
